# In US20100324079A1, “Medicament for prophylaxis and treatment of Alzheimer disease” (priority 2006, published 2010):
# Entries after “also recorded” stand apart in the source; their conditions may differ. Counter-ions that a name gives are not always drawn. Peptide text beside a SMILES is read from it. * marks the point of attachment. Cbz = O=C(OCc1ccccc1)*
# Tests used:
# [1] = system: intracellularly accumulated Aβ40; assay: Degradation of intracellularly accumulated Aβ40 in SH-SY5Y cells (immunoblot, confocal microscopy); type: cell-based; conditions: for degradation of intracellularly accumulated Aβ40 after 30 minutes: reagent added 2 hours before Aβ40 accumulation, immunoblot with 4G8
# Excerpt: (§1) In order to investigate a compound that inhibits intracellular aggregation and accumulation of amyloid β proteins based on activation of intracellular proteasome, a system was constructed for assaying an activity to degrade intracellularly accumulated Aβ. Neuroblastoma cells (SH-SY5Y; ATCC) were used as culture cells and Aβ40 was artificially accumulated within the cells. […] If the activity to degrade Aβ40 was high, the activity to degrade Aβ42 was analogously thought to be high. For introducing amyloid β proteins within cells, hypertonicity influx method was used. Briefly, using Influx™ Pinocytic Cell-loading Reagent (Molecular Probe), SH-SY5Y cells (1×10^6 cells) were exposed to Aβ40 (about 200 μg; ANASPEC) with hypertonicity for 10 minutes/hypotonicity for 2 minutes so that Aβ40 peptides may be incorporated into cells via pinocytosis and spread pervasively in cytoplasm. After accumulation of Aβ40 within cells, degradation of Aβ with lapse of time was observed. […] These reagents were added to culture two hours before Aβ40 accumulation to investigate their activity.
# (§2) Zero minute and thirty minutes after Aβ40 treatment, cells were collected and subjected to immunoblot. Immunoblot was performed as commonly known in the art wherein soluble proteins were extracted from cells with 2% SDS, run on Tris/Tricine gel SDS-PAGE, transblotted to PVDF membrane (Semi-dry method) and detected with an anti-Aβ antibody (4G8, Signet Pathology Systems). Quantitative evaluation was done by quantitatively evaluating the immune reaction of amyloid β proteins. Quantitative evaluation was performed by taking in the photos with Photoshop and measuring density of bands with NIH Image. […] Thus, it was considered that intracellularly accumulated Aβ40 were degraded by proteasome and that APO may enhance the degrading process.
# Aβ40 was incorporated into cells via pinocytosis as in (1) above.
# SH-SY5Y cells = assay: Cell death induced by hydrogen peroxide in SH-SY5Y cells (cell survival); type: cell-based; conditions: for rate of cell survival: hydrogen peroxide
# Experimental: A cell death inhibitory activity of apomorphine hydrochloride to cell death induced by hydrogen peroxide was studied. Hydrogen peroxide treatment was performed by adding an appropriate amount (0 mM, 1 mM, and 3 mM) of hydrogen peroxide to normal culture medium for SH-SY5Y cells supplemented with 10% serum and by investigating cell survival after 24 hours. The cells were fixed with methanol/acetone (50%/50%) for 10 minutes so that the conditions of surviving cells could easily be observed and then subjected to immunostaining with an anti-APP C-terminal antibody (Sigma-Aldrich) using Universal Kit (DAKO). As a result, cell death was induced by hydrogen peroxide (FIG. 3, upper panels). Then, the cells were treated with 10 μM APO together with 0 mM, 1 mM, and 3 mM of hydrogen peroxide.
# (§3) Further, in order to study p53 level and a rate of cell survival in cell damage induced by hydrogen peroxide, p53 Western blot analysis and survival rate assay using Cell Titer-Blue Assay Kit (Promega) were performed. Hydrogen peroxide treatment was done by adding an appropriate amount (0 mM, 1 mM, and 3 mM) of hydrogen peroxide to normal culture medium for SH-SY5Y cells supplemented with 10% serum as described above. After 24 hours, the increased p53 level by addition of hydrogen peroxide was inhibited by addition of APO (FIG. 4A). A rate of cell survival was also recovered by addition of APO.
# p53 = p53 Western blot analysis in hydrogen peroxide treated SH-SY5Y cells; type: cell-based; conditions: 0, 1, 3 mM hydrogen peroxide, after 24 hours
# Experimental: as §3
# [2] = system: intracellularly accumulated Aβ42; assay: Degradation of intracellularly accumulated Aβ42 in SH-SY5Y cells (immunoblot); type: cell-based
# Excerpt: as §1, §2
# As described in Example 1(1) and (2), degradation of intracellularly accumulated Aβ was assayed for Aβ42 provided that cells were collected 0 minute and 90 minutes after Aβ42 treatment and subjected to immunoblot.
# proteasome = assay: Proteasome activity in SH-SY5Y cells (20S Proteasome Assay Kit, Suc-LLVY-AMC); type: cell-based
# Experimental: As described in Example 2(1) and (2), a change in the protease activity in SH-SY5Y cells by addition of APO was studied. Measurement of the protease activity was conducted by calculating a relative specific activity by measuring fluorescence generated from degradation of a specific substrate (Suc-LLVY-AMC) using 20S Proteasome Assay Kit (BostonBiochem). Comparison between two groups was done by Student t-test.
# [3] = system: primary neurons from mouse fetus; assay: Protective effect in mouse primary neurons (cell survival, beta-tubulin immunostaining); type: cell-based
# Experimental: Primary neurons were taken from the brain of fetal mouse of 15 days old, separated by treatment with 0.03% trypsin and cultured in Neurobasal-A+B27 serum-free medium (Gibco). After stabilization by culture for about a week, the reagents were added and a rate of cell survival was measured.
# Further, the above mouse primary neurons were immunostained with an antibody to beta-tubulin, a cytoskeletal protein of the axon and a network of the neurite was observed (FIG. 8).
# 3×Tg mouse [4] = assay: Morris water maze test in heterozygous 3×Tg mice; type: in vivo
# Experimental: 3×Tg mouse is a model mouse of Alzheimer disease (AD) developed by Oddo and LaFerla et al. at University of California, Irvine. It is a mouse having three potent causes of disease wherein a gene of an amyloid precursor protein (APP) with KM670/671NL mutation, which is a gene causative of Swedish familial AD, and a gene of a tau protein (Tau) with P301L mutation, which is one of genes causative of familial frontotemporal dementia (FTD), are incorporated into a knock-in mouse of presenilin-1 (PS1) gene with M146V mutation causative of familial AD. […] It is also reported that the memory function of 3×Tg mouse is recovered when amyloid β proteins accumulated within neurons are decreased but defects in memory relapse if amyloid β proteins become accumulated (Billings L M et al., Neuron 45: 675-688, 2005). Thus, 3×Tg mouse is a model mouse of disease highly suitable for investigating efficacy of a medicament which targets intracellularly accumulated amyloid β proteins.
# For investigating efficacy of apomorphine (APO) hydrochloride administered in vivo, APO was subcutaneously injected to 3×Tg. APO was purchased from Sigma Co. To heterozygous 3×Tg (6 month old; 4 mice in each group) generated from crossbreeding of a normal mouse and a Tg mouse, each 5 mg/kg of saline or APO was subcutaneously injected weekly for 4 weeks. The animals underwent analysis by Morris water maze test to evaluate the capacity of space memory before injection and after completion of four injections.
# For quantitatively evaluating the capacity of space memory relating to the memory function of the hippocampus, Morris water maze test was performed. An analytical instrument used was DV-Track Video Tracking System (Muromachi Kikai Co., Ltd.). For Morris water maze, a round-shaped pool with a diameter of 1 m is prepared and a transparent goal stand is set in an arbitrary position of the pool. The animals undergo swimming training repeatedly by starting at an arbitrary position for reaching the goal stand (FIG. 9, left panel). In case that the animals could not reach the goal stand within 60 seconds, the test is discontinued and the animals are put on the goal stand for them to memorize the position. This training is repeated four times a day for three consecutive days and as a consequence the animals come to memorize the position of the goal stand (FIG. 9, right panel). Forty eight hours after completion of learning with time for reaching the goal stand being 15 seconds or less, the animals were let to swim in the pool without the goal stand and three indexes for memory were: time lag (s) in reaching the position where the goal stand was originally placed, a frequency (n) of crossing the position as seeking for the goal stand, and residential time (%) within ¼ block of the position where the goal stand was originally placed (48-hour probe test).
# 3×Tg mouse [5] = assay: Immunostaining of brain slices of 3×Tg mice (4G8, AT8); type: in vivo
# Excerpt: In 3×Tg mouse, it is observed that defects in the recognition function and intracellularly accumulated amyloid β proteins are correlated to each other. For evaluating amyloid β proteins accumulated within neurons, 3×Tg mice used in Example 6 were sacrificed for pathological analysis. Immunostaining was done with an antibody specific to an amyloid β protein and an antibody specific to a phosphorylated tau protein, which is a major component of neurofibrillary tangle in the AD brain. After completion of Morris water maze test after APO injection, the mice were subjected to perfusion fixation with 4% paraformaldehyde. Then, the whole brain was taken out, fixed with 4% paraformaldehyde and was left to stand in 15% sucrose for 48 hours and in 30% sucrose for 48 hours at 4° C. A slice with 20 μm thickness cut from the forehead including the hippocampus was prepared. Immunostaining was performed with 4G8 (Signet Laboratories, 1:1000) for an anti-amyloid β protein antibody and AT8 (Innogenetics, 1:200) for an anti-phosphorylated tau protein antibody using mouse to mouse immunostaining kit (Zymed) for DAB staining.
# 3×Tg mouse [6] = assay: Preventive effect to onset of AD, Morris water maze test in homozygous 3×Tg mice; type: in vivo; conditions: weekly 5 mg/kg from 3 months old up till 6 months old, hydrochloride
# Experimental: For investigating whether APO administration may prevent onset of AD, the effect of weekly administration of 5 mg/kg of APO before onset was studied. The recognition function and the pathological change in 3×Tg mice may widely vary from individual to individual and thus still much more data would be necessary for obtaining a definite conclusion.
compound,measurement,setting,value
"CN1CCc2cccc3c2[C@H]1Cc1ccc(O)c(O)c1-3 [APO, apomorphine hydrochloride]",change in intracellular Aβ40 with lapse of time,[1]; 10 μM APO added two hours before,degraded with lapse of time
same,degradation of intracellularly accumulated Aβ40 after 30 minutes,[1],degradation after 30 minutes was enhanced
same,"degradation of intracellularly accumulated Aβ40 inhibited by MG132, effect of adding APO","[1]; with MG132, 30 minutes, immunoblot",the degradation was recovered
same,cell survival (number of surviving cells and morphological features),"SH-SY5Y cells; 10 μM APO with 0, 1, 3 mM hydrogen peroxide, 24 hours, immunostaining",evident enhancement of cell survival
same,rate of cell survival,"SH-SY5Y cells; 10 μM APO, Cell Titer-Blue, p<0.0001",extremely improved
same,rate of cell survival,"SH-SY5Y cells; 24 hours, Cell Titer-Blue Assay Kit",recovered
same,p53 level increased by hydrogen peroxide,p53,inhibited
same,degradation of intracellularly accumulated Aβ42 after 90 minutes,[2],degradation after 90 minutes was enhanced
same,proteasome activity (relative specific activity),"proteasome; APO alone, hydrochloride",enhanced the proteasome activity; also recorded: increased
same,decreased proteasome activity at addition of oxidative stress,proteasome; oxidative stress plus APO,recovered
same,network of the neurite (beta-tubulin immunostaining),[3]; mouse primary neurons,protection and maintenance of the network
same,apoptosis inhibitory activity for oxidative stress (rate of cell survival),[3]; primary neurons from fetal mouse of 15 days old,also seen in primary neurons from mouse fetus
same,concentration at which the effect of APO was at the peak,"[3]; primary neurons from mouse fetus, rate of cell survival, thereafter declined",10 µM
same,"capacity of memory for the goal stand position (loci of swimming), 48-hour probe test","3×Tg mouse [4]; 3×Tg cases (2 mice) in which APO injection was efficacious, hydrochloride",the memory retention of the goal stand position was improved; also recorded: markedly improved
same,capacity of learning after 3-day consecutive training (time for reaching the goal stand),"3×Tg mouse [4]; heterozygous 3×Tg, 6 month old, 5 mg/kg subcutaneous weekly for 4 weeks, n=4, hydrochloride, 5 mg/kg",a tendency of improvement in the capacity of memory and learning; also recorded: slightly higher capacity of learning after treatment
same,"frequency of crossing the goal stand, 48-hour probe test","3×Tg mouse [4]; heterozygous 3×Tg, 5 mg/kg s.c. weekly for 4 weeks, after vs before injection, p=0.03",increase in frequency of crossing the goal stand
same,"residential time (%) within ¼ block of the goal stand, 48-hour probe test","3×Tg mouse [4]; heterozygous 3×Tg, 5 mg/kg s.c. weekly for 4 weeks, after vs before injection, p=0.04",increase in residential time
same,"time lag in reaching the goal stand, 48-hour probe test","3×Tg mouse [4]; heterozygous 3×Tg, 5 mg/kg s.c. weekly for 4 weeks, after vs before injection, p=0.05",shortening of time lag in reaching the goal stand
same,fall-off of massive neurons,"3×Tg mouse [5]; 3×Tg mice at the stage of 6-month, after administration",not observed
same,intraneuronal accumulation of amyloid β proteins (4G8 immunostaining),"3×Tg mouse [5]; cerebral cortex and hippocampus CA1 region, 3×Tg mice of Example 6, vs saline, hydrochloride",evidently inhibited
same,intraneuronal accumulation of phosphorylated tau proteins (AT8 immunostaining),"3×Tg mouse [5]; cerebral cortex and hippocampus, 3×Tg mice of Example 6, vs saline, hydrochloride",the accumulation was inhibited
same,capacity of memory acquisition in swimming training (time lag in reaching the goal stand),3×Tg mouse [6],comparable to Non-Tg mice; also recorded: evidently superior to that of 3×Tg mice with no treatment; also recorded: comparable to non-transgenic mice
CC(C)C[C@@H](C=O)NC(=O)[C@H](CC(C)C)NC(=O)[C@H](CC(C)C)NC(=O)OCc1ccccc1 [MG132] (Cbz-Leu-Leu-Leu-aldehyde),degradation of intracellularly accumulated Aβ40 after 30 minutes,[1],degradation was inhibited
same,degradation of intracellularly accumulated Aβ42 after 90 minutes,[2],degradation was inhibited
"Aβ42: amyloid β protein of 42 residues; printed in b62 as the added agent, probably a misprint for APO","degradation of intracellularly accumulated Aβ42 inhibited by MG132, recovery","[2]; with MG132, 90 minutes",the degradation was recovered
